The target in one experiment is FynT enzyme (Homo sapiens (Human), UniProt P06241). The experiment in a line: FynT enzyme activity (IMAP fluorescence polarization assay). It is filed as biochemical. Conditions: 60 min pre-incubation, 0.2 μM ATP. The gist of the method:
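Human FynT pre-incubated with compounds 60 min at room temperature, then reacted 2 h at room temperature with fluorescein-labelled p34cdc2 peptide (100 nM final). Stopped with IMAP binding solution; fluorescence polarization read after 60 min. Activity as % of ±ATP control difference; EC50 by curve fitting.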

The target of the next experiment is Lyn enzyme (Homo sapiens (Human), UniProt P07948). The experiment in a line: Lyn enzyme activity (IMAP fluorescence polarization assay). Conditions: read-out: EC50 Lyn activity values, 60 min pre-incubation, 2 μM ATP, bin bound in μM.
In the next experiment the target is Src enzyme (Homo sapiens (Human), UniProt P12931). Nature of the experiment: Src enzyme activity (IMAP fluorescence polarization assay). Conditions: read-out: EC50 Src activity values; IMAP, 60 min pre-incubation, 4 μM ATP.
The next experiment deals with Btk enzyme (His-Btk) (Homo sapiens (Human), UniProt Q06187). Nature of the experiment: Btk enzyme activity (IMAP fluorescence polarization assay).
The target in a further experiment is Lck enzyme (Homo sapiens (Human), UniProt P06239). Nature of the experiment: Lck enzyme activity (IMAP fluorescence polarization assay).
Where [1] appears, read: IMAP, 60 min pre-incubation, 5 μM ATP, bin bound in nM.
[2] abbreviates: read-out: EC50 Lck activity values, IMAP, 60 min pre-incubation, 6 μM ATP, bin bound in μM.
Setting [3] is: IMAP, 60 min pre-incubation, 5 μM ATP, bin bound in μM.
[4] abbreviates: read-out: EC50 Btk activity values, IMAP, 60 min pre-incubation, 5 μM ATP, bin bound in nM.

Like-named read-outs stand apart in the source and are kept apart here.

FynT enzyme, sequence (P06241 other isoform, or with tags, fused parts or gaps): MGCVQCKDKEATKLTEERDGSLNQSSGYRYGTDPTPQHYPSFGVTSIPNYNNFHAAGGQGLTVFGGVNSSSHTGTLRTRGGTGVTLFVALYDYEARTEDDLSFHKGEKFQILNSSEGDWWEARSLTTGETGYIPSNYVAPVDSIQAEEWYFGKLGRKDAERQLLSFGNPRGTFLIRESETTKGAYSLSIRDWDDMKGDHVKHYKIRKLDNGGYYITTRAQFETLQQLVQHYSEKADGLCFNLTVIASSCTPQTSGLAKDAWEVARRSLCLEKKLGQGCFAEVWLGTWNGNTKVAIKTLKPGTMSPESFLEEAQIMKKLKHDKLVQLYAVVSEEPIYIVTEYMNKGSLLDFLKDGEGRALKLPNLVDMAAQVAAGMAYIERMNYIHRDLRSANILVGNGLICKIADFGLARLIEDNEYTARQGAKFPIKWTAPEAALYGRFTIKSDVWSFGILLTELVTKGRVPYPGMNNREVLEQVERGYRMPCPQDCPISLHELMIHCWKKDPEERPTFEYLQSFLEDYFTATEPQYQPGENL
Lck enzyme, sequence (P06239 whole entry): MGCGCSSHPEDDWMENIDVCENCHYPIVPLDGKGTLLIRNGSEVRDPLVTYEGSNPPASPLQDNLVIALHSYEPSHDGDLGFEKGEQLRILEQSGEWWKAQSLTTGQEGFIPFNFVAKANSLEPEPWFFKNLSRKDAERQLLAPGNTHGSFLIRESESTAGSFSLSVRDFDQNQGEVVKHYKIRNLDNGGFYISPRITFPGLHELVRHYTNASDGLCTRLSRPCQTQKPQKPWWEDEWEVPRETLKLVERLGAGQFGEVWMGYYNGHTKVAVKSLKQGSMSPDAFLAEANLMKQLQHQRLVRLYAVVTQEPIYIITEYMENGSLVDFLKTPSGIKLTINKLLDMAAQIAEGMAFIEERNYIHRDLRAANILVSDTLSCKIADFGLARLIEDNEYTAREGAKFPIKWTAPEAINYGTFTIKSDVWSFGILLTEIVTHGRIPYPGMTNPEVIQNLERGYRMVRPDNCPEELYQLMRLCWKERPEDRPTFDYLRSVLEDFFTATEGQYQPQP
Lyn enzyme, sequence (P07948 whole entry): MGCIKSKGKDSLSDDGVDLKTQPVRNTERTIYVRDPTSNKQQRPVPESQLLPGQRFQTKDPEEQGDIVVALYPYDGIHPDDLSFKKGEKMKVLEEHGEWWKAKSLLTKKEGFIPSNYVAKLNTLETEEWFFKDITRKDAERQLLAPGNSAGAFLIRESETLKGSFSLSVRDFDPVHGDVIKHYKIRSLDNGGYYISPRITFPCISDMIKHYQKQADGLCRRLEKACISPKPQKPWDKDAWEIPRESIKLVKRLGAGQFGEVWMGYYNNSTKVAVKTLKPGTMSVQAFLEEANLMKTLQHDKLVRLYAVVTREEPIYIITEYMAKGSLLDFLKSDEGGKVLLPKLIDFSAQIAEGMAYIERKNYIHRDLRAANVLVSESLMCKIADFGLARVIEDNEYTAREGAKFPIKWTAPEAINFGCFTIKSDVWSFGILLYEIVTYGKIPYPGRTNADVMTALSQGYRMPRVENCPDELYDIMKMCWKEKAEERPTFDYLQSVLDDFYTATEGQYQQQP
Btk enzyme (His-Btk), sequence (Q06187 whole entry): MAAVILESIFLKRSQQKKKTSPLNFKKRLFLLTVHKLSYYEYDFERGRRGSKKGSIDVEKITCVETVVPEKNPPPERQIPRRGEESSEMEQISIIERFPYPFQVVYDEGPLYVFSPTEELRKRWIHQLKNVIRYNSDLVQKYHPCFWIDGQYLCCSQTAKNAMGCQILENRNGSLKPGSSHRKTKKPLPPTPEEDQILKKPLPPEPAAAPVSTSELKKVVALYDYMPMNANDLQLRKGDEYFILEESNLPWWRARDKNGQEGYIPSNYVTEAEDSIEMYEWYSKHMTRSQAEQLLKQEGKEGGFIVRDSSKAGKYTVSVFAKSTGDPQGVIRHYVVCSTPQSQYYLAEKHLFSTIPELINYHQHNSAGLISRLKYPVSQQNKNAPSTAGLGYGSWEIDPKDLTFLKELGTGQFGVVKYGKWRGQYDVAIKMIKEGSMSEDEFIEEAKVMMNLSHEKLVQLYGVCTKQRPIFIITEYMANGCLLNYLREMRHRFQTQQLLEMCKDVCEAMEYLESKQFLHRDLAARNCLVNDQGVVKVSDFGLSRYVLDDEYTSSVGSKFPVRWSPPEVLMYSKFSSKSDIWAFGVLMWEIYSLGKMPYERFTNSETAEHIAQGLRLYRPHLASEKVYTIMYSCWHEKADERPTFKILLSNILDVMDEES
Src enzyme, sequence (P12931 whole entry, looked up): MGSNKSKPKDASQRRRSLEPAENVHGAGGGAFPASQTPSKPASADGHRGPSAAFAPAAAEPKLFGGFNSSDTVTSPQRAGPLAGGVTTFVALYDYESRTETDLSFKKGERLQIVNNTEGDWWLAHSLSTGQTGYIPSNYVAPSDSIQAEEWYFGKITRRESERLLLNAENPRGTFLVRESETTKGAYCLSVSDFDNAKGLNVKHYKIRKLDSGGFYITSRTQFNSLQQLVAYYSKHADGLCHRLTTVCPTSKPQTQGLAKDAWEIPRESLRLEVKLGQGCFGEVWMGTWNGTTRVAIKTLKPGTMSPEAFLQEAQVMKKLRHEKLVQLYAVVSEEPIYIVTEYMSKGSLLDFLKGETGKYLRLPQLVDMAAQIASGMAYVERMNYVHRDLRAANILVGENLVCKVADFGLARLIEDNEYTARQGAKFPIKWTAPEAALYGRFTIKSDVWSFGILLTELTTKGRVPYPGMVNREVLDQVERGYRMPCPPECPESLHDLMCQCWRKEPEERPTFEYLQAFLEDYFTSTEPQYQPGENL

In the case of `CC(C)c1ccnc(NC(=O)c2ccc(-c3nc([C@@H]4CCCN4C(=O)c4ccnc(Cl)n4)n4ccnc(N)c34)cc2)c1` [Example 70, (S)-4-(8-amino-3-(1-(2-chloropyrimidine-4-carbonyl)pyrrolidin-2-yl)imidazo[1,5-a]pyrazin-1-yl)-N-(4-isopropylpyridin-2-yl)benzamide], the EC50 on FynT enzyme is at least 1000 nM; at Lyn enzyme, at least 1 µM; on Src enzyme, at least 1000 nM; at Btk enzyme (His-Btk) it was 10 to 100 nM; at Lck enzyme (setting [2]), at least 1 µM. In addition, the “EC50 Btk activity values” at Btk enzyme (His-Btk) (setting [1]) was below 100 nM.
In the case of `Nc1nccn2c([C@@H]3CCCN3C(=O)c3ccnc(Cl)n3)nc(-c3ccc(C(=O)Nc4nc5c(s4)CCCC5)cc3)c12` [Example 71, (S)-4-(8-amino-3-(1-(2-chloropyrimidine-4-carbonyl)pyrrolidin-2-yl)imidazo[1,5-a]pyrazin-1-yl)-N-(4,5,6,7-tetrahydrobenzo[d]thiazol-2-yl)benzamide], the EC50 on FynT enzyme is at least 1000 nM; at Lyn enzyme, at least 1 µM; on Src enzyme it was at least 1000 nM; on Btk enzyme (His-Btk), 10 to 100 nM; at Lck enzyme (setting [2]), at least 1 µM. The “EC50 Btk activity values” at Btk enzyme (His-Btk) (setting [1]) is listed as below 100 nM.
As to `COC/C=C/C(=O)N1CCCC[C@H]1c1nc(-c2ccc(C(=O)Nc3cccnn3)cc2)c2c(N)nccn12` [Example 72, (S,E)-4-(8-amino-3-(1-(4-methoxybut-2-enoyl)piperidin-2-yl)imidazo[1,5-a]pyrazin-1-yl)-N-(pyridazin-3-yl)benzamide], the EC50 at FynT enzyme was at least 1000 nM; at Lyn enzyme, at least 1 µM; at Src enzyme it was at least 1000 nM; on Btk enzyme (His-Btk), 100 to 1000 nM; on Lck enzyme (setting [2]), at least 1 µM. For the same compound, on Btk enzyme (His-Btk) (setting [3]), the “EC50 Btk activity values” was below 1000 nM.
For the compound `CN(C)C/C=C/C(=O)N1CCCC[C@H]1c1nc(-c2ccc(C(=O)Nc3cccnn3)cc2)c2c(N)nccn12` [Example 73, (S,E)-4-(8-amino-3-(1-(4-(dimethylamino)but-2-enoyl)piperidin-2-yl)imidazo[1,5-a]pyrazin-1-yl)-N-(pyridazin-3-yl)benzamide], the EC50 on FynT enzyme was at least 1000 nM; on Lyn enzyme it was at least 1 µM; on Src enzyme it was at least 1000 nM; at Btk enzyme (His-Btk), 10 to 100 nM; at Lck enzyme (setting [2]), at least 1 µM. For the same compound, the “EC50 Btk activity values” at Btk enzyme (His-Btk) (setting [1]) is reported as below 100 nM.
On to `Nc1nccn2c([C@@H]3CCCCN3C(=O)c3ccnc(Cl)n3)nc(-c3ccc(C(=O)Nc4cccnn4)cc3)c12` [Example 74, (S)-4-(8-amino-3-(1-(2-chloropyrimidine-4-carbonyl)piperidin-2-yl)imidazo[1,5-a]pyrazin-1-yl)-N-(pyridazin-3-yl)benzamide], for which the EC50 at FynT enzyme is at least 1000 nM; on Lyn enzyme, at least 1 µM; at Src enzyme, at least 1000 nM; at Btk enzyme (His-Btk) it was 100 to 1000 nM; at Lck enzyme (setting [2]) it was at least 1 µM. For the same compound, the “EC50 Btk activity values” at Btk enzyme (His-Btk) (setting [3]) is below 1000 nM.
On to `COC/C=C/C(=O)N(C)[C@@H](C)c1nc(-c2ccc(C(=O)Nc3cc(C(F)(F)F)ccn3)cc2)c2c(N)nccn12` [Example 75, (S,E)-4-(8-amino-3-(1-(4-methoxy-N-methylbut-2-enamido)ethyl)imidazo[1,5-a]pyrazin-1-yl)-N-(4-(trifluoromethyl)pyridin-2-yl)benzamide], for which the EC50 at FynT enzyme is at least 1000 nM; on Lyn enzyme, at least 1 µM; on Src enzyme it was at least 1000 nM; at Btk enzyme (His-Btk) (setting [4]), below 10 nM; on Lck enzyme (setting [2]), at least 1 µM.
In the case of `CCCc1ccnc(NC(=O)c2ccc(-c3nc([C@H](C)N(C)C(=O)/C=C/CN(C)C)n4ccnc(N)c34)cc2)c1` [Example 76, (S,E)-4-(8-amino-3-(1-(4-(dimethylamino)-N-methylbut-2-enamido)ethyl)imidazo[1,5-a]pyrazin-1-yl)-N-(4-propylpyridin-2-yl)benzamide], the EC50 is at least 1000 nM at FynT enzyme; at least 1 µM on Lyn enzyme; at least 1000 nM at Src enzyme; below 10 nM at Btk enzyme (His-Btk) (setting [4]); 0.1 to 1 µM at Lck enzyme. Also, at Lck enzyme (IMAP, 60 min pre-incubation, 6 μM ATP, bin bound in μM), the “EC50 Lck activity values” is below 1 µM.
As for `CCCc1ccnc(NC(=O)c2ccc(-c3nc([C@@H]4CCCN4C(=O)/C=C/CN4CCCC4)n4ccnc(N)c34)cc2)c1` [Example 77, (S,E)-4-(8-amino-3-(1-(4-(pyrrolidin-1-yl)but-2-enoyl)pyrrolidin-2-yl)imidazo[1,5-a]pyrazin-1-yl)-N-(4-propylpyridin-2-yl)benzamide], the EC50 at FynT enzyme was at least 1000 nM; at Lyn enzyme it was at least 1 µM; on Src enzyme, at least 1000 nM; on Btk enzyme (His-Btk) (setting [4]), below 10 nM; at Lck enzyme (setting [2]), at least 1 µM.
For `CN(C)C/C=C/C(=O)N1CCCC[C@H]1c1nc(-c2ccc(C(=O)Nc3ccccn3)cc2)c2c(N)nccn12` [Example 78, (S,E)-4-(8-amino-3-(1-(4-(dimethylamino)but-2-enoyl)piperidin-2-yl)imidazo[1,5-a]pyrazin-1-yl)-N-(pyridin-2-yl)benzamide], the EC50 on FynT enzyme is at least 1000 nM; at Lyn enzyme, at least 1 µM; at Src enzyme, at least 1000 nM; at Btk enzyme (His-Btk) (setting [4]) it was below 10 nM; at Lck enzyme (setting [2]) it was at least 1 µM.
For `CCCc1ccnc(NC(=O)c2ccc(-c3nc([C@@H]4CCCN4C(=O)c4ccnc(Cl)n4)n4ccnc(N)c34)cc2)c1` [Example 79, (S)-4-(8-amino-3-(1-(2-chloropyrimidine-4-carbonyl)pyrrolidin-2-yl)imidazo[1,5-a]pyrazin-1-yl)-N-(4-propylpyridin-2-yl)benzamide], the EC50 is at least 1000 nM at FynT enzyme; at least 1 µM at Lyn enzyme; at least 1000 nM at Src enzyme; below 10 nM at Btk enzyme (His-Btk) (setting [4]); at least 1 µM on Lck enzyme (setting [2]).
On to `Nc1nccn2c([C@@H]3CCCCN3C(=O)c3ccnc(Cl)n3)nc(-c3ccc(C(=O)Nc4cc(F)ccn4)cc3)c12` [Example 80, (S)-4-(8-amino-3-(1-(2-chloropyrimidine-4-carbonyl)piperidin-2-yl)imidazo[1,5-a]pyrazin-1-yl)-N-(4-fluoropyridin-2-yl)benzamide], for which the EC50 at FynT enzyme was at least 1000 nM; on Lyn enzyme, at least 1 µM; at Src enzyme, at least 1000 nM; on Btk enzyme (His-Btk), 10 to 100 nM; on Lck enzyme (setting [2]), at least 1 µM. Moreover, the “EC50 Btk activity values” at Btk enzyme (His-Btk) (setting [1]) was below 100 nM.
On to `COC/C=C/C(=O)N1CCCC[C@H]1c1nc(-c2ccc(C(=O)Nc3cc(F)ccn3)cc2)c2c(N)nccn12` [Example 81, (S,E)-4-(8-amino-3-(1-(4-methoxybut-2-enoyl)piperidin-2-yl)imidazo[1,5-a]pyrazin-1-yl)-N-(4-fluoropyridin-2-yl)benzamide], for which the EC50 on FynT enzyme was at least 1000 nM; on Lyn enzyme it was at least 1 µM; at Src enzyme, at least 1000 nM; on Btk enzyme (His-Btk) it was 10 to 100 nM; on Lck enzyme (setting [2]) it was at least 1 µM. At Btk enzyme (His-Btk) (setting [1]), the “EC50 Btk activity values” is below 100 nM.
Take `COC/C=C/C(=O)N1CCC[C@H]1c1nc(-c2ccc(C(=O)Nc3nc4c(s3)CCCC4)cc2)c2c(N)nccn12` [Example 82, (S,E)-4-(8-amino-3-(1-(4-methoxybut-2-enoyl)pyrrolidin-2-yl)imidazo[1,5-a]pyrazin-1-yl)-N-(4,5,6,7-tetrahydrobenzo[d]thiazol-2-yl)benzamide]: the EC50 on FynT enzyme was at least 1000 nM; on Lyn enzyme, at least 1 µM; at Src enzyme, at least 1000 nM; at Btk enzyme (His-Btk), 10 to 100 nM; at Lck enzyme (setting [2]), at least 1 µM. On Btk enzyme (His-Btk) (setting [1]), the “EC50 Btk activity values” is on record as below 100 nM.
`COc1cc(-c2nc([C@@H]3CCCN3C(=O)c3ccnc(Cl)n3)n3ccnc(N)c23)ccc1C(=O)Nc1ccccn1` [Example 83, (S)-4-(8-amino-3-(1-(2-chloropyrimidine-4-carbonyl)pyrrolidin-2-yl)imidazo[1,5-a]pyrazin-1-yl)-2-methoxy-N-(pyridin-2-yl)benzamide]: the EC50 at FynT enzyme was at least 1000 nM; on Lyn enzyme, at least 1 µM; at Src enzyme it was at least 1000 nM; at Btk enzyme (His-Btk), 10 to 100 nM; on Lck enzyme (setting [2]) it was at least 1 µM. Moreover, at Btk enzyme (His-Btk) (setting [1]), the “EC50 Btk activity values” is on record as below 100 nM.
Take `Nc1nccn2c([C@@H]3CCCN3C(=O)c3ccnc(Cl)n3)nc(-c3ccc(C(=O)Nc4ccccn4)c(F)c3)c12` [Example 84, (S)-4-(8-amino-3-(1-(2-chloropyrimidine-4-carbonyl)pyrrolidin-2-yl)imidazo[1,5-a]pyrazin-1-yl)-2-fluoro-N-(pyridin-2-yl)benzamide]: the EC50 at FynT enzyme is at least 1000 nM; on Lyn enzyme, at least 1 µM; on Src enzyme it was at least 1000 nM; on Btk enzyme (His-Btk), 10 to 100 nM; on Lck enzyme (setting [2]), at least 1 µM. Also, the “EC50 Btk activity values” at Btk enzyme (His-Btk) (setting [1]) was below 100 nM.
With `COC/C=C/C(=O)N1CCCC[C@H]1c1nc(-c2ccc(C(=O)Nc3ccccn3)cc2C)c2c(N)nccn12` [Example 85, 4-(8-amino-3-((S)-1-((E)-4-methoxybut-2-enoyl)piperidin-2-yl)imidazo[1,5-a]pyrazin-1-yl)-3-methyl-N-(pyridin-2-yl)benzamide], the EC50 was at least 1000 nM on FynT enzyme; at least 1 µM on Lyn enzyme; at least 1000 nM at Src enzyme; 100 to 1000 nM at Btk enzyme (His-Btk); at least 1 µM on Lck enzyme (setting [2]). Moreover, the “EC50 Btk activity values” on Btk enzyme (His-Btk) (setting [3]) was below 1000 nM.

(Values after patent US9758524B2, “4-imidazopyridazin-1-yl-benzamides as Btk inhibitors” (Merck Sharp & Dohme B.V., priority 2011, dated 2017).)
